Results: PubChem BioAssay (NCI)
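In this assay, cells in 96-well plates receive the compound at five concentrations for 48 hours. Endpoints are linearly interpolated between the surrounding concentrations. Here, GI50 denotes the concentration required for 50% inhibition of growth. TGI denotes the concentration required for complete inhibition of growth.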

Tests used:
Experiment in all cases: NCI anticancer screen, dose series, 48 h
786-0 renal = test system: 786-0 renal
A498 renal = test system: A498 renal
A549 NSCLC = test system: A549 NSCLC
ACHN renal = test system: ACHN renal
BT-549 breast = test system: BT-549 breast
CAKI-1 renal = test system: CAKI-1 renal
CCRF-CEM leukemia = test system: CCRF-CEM leukemia
COLO 205 colon = test system: COLO 205 colon
DU-145 prostate = test system: DU-145 prostate
HCC-2998 colon = test system: HCC-2998 colon
HCT-116 colon = test system: HCT-116 colon
HCT-15 colon = test system: HCT-15 colon
HL-60(TB) leukemia = test system: HL-60(TB) leukemia
HOP-62 NSCLC = test system: HOP-62 NSCLC
HOP-92 NSCLC = test system: HOP-92 NSCLC
HS 578T breast = test system: HS 578T breast
HT29 colon = test system: HT29 colon
IGROV1 ovarian = test system: IGROV1 ovarian
K-562 leukemia = test system: K-562 leukemia
KM12 colon = test system: KM12 colon
LOX IMVI melanoma = test system: LOX IMVI melanoma
MALME-3M melanoma = test system: MALME-3M melanoma
MCF7 breast = test system: MCF7 breast
MDA-MB-231 breast = test system: MDA-MB-231 breast
MDA-MB-435 = test system: MDA-MB-435
MOLT-4 leukemia = test system: MOLT-4 leukemia
NCI-H226 lung = test system: NCI-H226 lung
NCI-H23 lung = test system: NCI-H23 lung
NCI-H460 lung = test system: NCI-H460 lung
NCI-H522 lung = test system: NCI-H522 lung
NCI/ADR-RES ovarian = test system: NCI/ADR-RES ovarian
OVCAR-3 ovarian = test system: OVCAR-3 ovarian
OVCAR-4 ovarian = test system: OVCAR-4 ovarian
OVCAR-5 ovarian = test system: OVCAR-5 ovarian
OVCAR-8 ovarian = test system: OVCAR-8 ovarian
PC-3 prostate = test system: PC-3 prostate
RPMI-8226 leukemia = test system: RPMI-8226 leukemia
RXF 393 renal = test system: RXF 393 renal
SF-268 CNS = test system: SF-268 CNS
SF-295 CNS = test system: SF-295 CNS
SF-539 CNS = test system: SF-539 CNS
SK-MEL-2 melanoma = test system: SK-MEL-2 melanoma
SK-MEL-28 melanoma = test system: SK-MEL-28 melanoma
SK-MEL-5 melanoma = test system: SK-MEL-5 melanoma
SK-OV-3 ovarian = test system: SK-OV-3 ovarian
SN12C renal = test system: SN12C renal
SNB-19 CNS = test system: SNB-19 CNS
SNB-75 CNS = test system: SNB-75 CNS
SR leukemia = test system: SR leukemia
SW-620 colon = test system: SW-620 colon
T-47D breast = test system: T-47D breast
TK-10 renal = test system: TK-10 renal
U251 CNS = test system: U251 CNS
UACC-257 melanoma = test system: UACC-257 melanoma
UACC-62 melanoma = test system: UACC-62 melanoma
UO-31 renal = test system: UO-31 renal
M14 melanoma = test system: M14 melanoma

Cc1ccc(Nc2nc(NCCO)c3ccccc3n2)cc1C
GI50 (786-0 renal): 6.94 µM | TGI (786-0 renal): 20.1 µM | GI50 (A498 renal): 0.0535 µM | TGI (A498 renal): 2.06 µM | GI50 (A549 NSCLC): 5.4 µM | TGI (A549 NSCLC): 22.7 µM | GI50 (ACHN renal): 11 µM | TGI (ACHN renal): 23.9 µM | GI50 (BT-549 breast): 11.5 µM | TGI (BT-549 breast): 23.6 µM | GI50 (CAKI-1 renal): 4.66 µM | TGI (CAKI-1 renal): 17.8 µM | GI50 (CCRF-CEM leukemia): 4.57 µM | TGI (CCRF-CEM leukemia): 18.6 µM | GI50 (COLO 205 colon): 1.81 µM | TGI (COLO 205 colon): 3.73 µM | GI50 (DU-145 prostate): 10.3 µM | TGI (DU-145 prostate): 22 µM | GI50 (HCC-2998 colon): 2.44 µM | TGI (HCC-2998 colon): 5.96 µM | GI50 (HCT-116 colon): 3.95 µM | TGI (HCT-116 colon): 14.5 µM | GI50 (HCT-15 colon): 3.26 µM | TGI (HCT-15 colon): 13.3 µM | GI50 (HL-60(TB) leukemia): 11 µM | TGI (HL-60(TB) leukemia): 31 µM | GI50 (HOP-62 NSCLC): 10.7 µM | TGI (HOP-62 NSCLC): 24.1 µM | GI50 (HOP-92 NSCLC): 1.97 µM | TGI (HOP-92 NSCLC): 8.03 µM | GI50 (HS 578T breast): 12.4 µM | TGI (HS 578T breast): 33.8 µM | GI50 (HT29 colon): 3.25 µM | TGI (HT29 colon): 10.6 µM | GI50 (IGROV1 ovarian): 9.65 µM | TGI (IGROV1 ovarian): 23.8 µM | GI50 (K-562 leukemia): 3.19 µM | TGI (K-562 leukemia): 13 µM | GI50 (KM12 colon): 8.06 µM | TGI (KM12 colon): 20.5 µM | GI50 (LOX IMVI melanoma): 3.55 µM | TGI (LOX IMVI melanoma): 12.4 µM | GI50 (MALME-3M melanoma): 1.85 µM | TGI (MALME-3M melanoma): 3.77 µM | GI50 (MCF7 breast): 1.66 µM | TGI (MCF7 breast): 16.9 µM | GI50 (MDA-MB-231 breast): 4.22 µM | TGI (MDA-MB-231 breast): 16.1 µM | GI50 (MDA-MB-435): 4 µM | TGI (MDA-MB-435): 15.9 µM | GI50 (MOLT-4 leukemia): 2.86 µM | TGI (MOLT-4 leukemia): 11 µM | GI50 (NCI-H226 lung): 10.8 µM | TGI (NCI-H226 lung): 22.7 µM | GI50 (NCI-H23 lung): 9.74 µM | TGI (NCI-H23 lung): 22.5 µM | GI50 (NCI-H460 lung): 4.44 µM | TGI (NCI-H460 lung): 16.7 µM | GI50 (NCI-H522 lung): 4.68 µM | TGI (NCI-H522 lung): 18 µM | GI50 (NCI/ADR-RES ovarian): 7.18 µM | TGI (NCI/ADR-RES ovarian): 20.6 µM | GI50 (OVCAR-3 ovarian): 11 µM | TGI (OVCAR-3 ovarian): 23 µM | GI50 (OVCAR-4 ovarian): 3.14 µM | TGI (OVCAR-4 ovarian): 15.6 µM | GI50 (OVCAR-5 ovarian): 4.29 µM | TGI (OVCAR-5 ovarian): 16.4 µM | GI50 (OVCAR-8 ovarian): 5.44 µM | TGI (OVCAR-8 ovarian): 25.9 µM | GI50 (PC-3 prostate): 4.24 µM | TGI (PC-3 prostate): 16.7 µM | GI50 (RPMI-8226 leukemia): 2.55 µM | TGI (RPMI-8226 leukemia): 9.46 µM | GI50 (RXF 393 renal): 3.14 µM | TGI (RXF 393 renal): 13.7 µM | GI50 (SF-268 CNS): 9.27 µM | TGI (SF-268 CNS): 22.2 µM | GI50 (SF-295 CNS): 4.37 µM | TGI (SF-295 CNS): 17.5 µM | GI50 (SF-539 CNS): 5.87 µM | TGI (SF-539 CNS): 19.7 µM | GI50 (SK-MEL-2 melanoma): 11.3 µM | TGI (SK-MEL-2 melanoma): 24 µM | GI50 (SK-MEL-28 melanoma): 6.47 µM | TGI (SK-MEL-28 melanoma): 20.1 µM | GI50 (SK-MEL-5 melanoma): 2.78 µM | TGI (SK-MEL-5 melanoma): 10.5 µM | GI50 (SK-OV-3 ovarian): 14.2 µM | TGI (SK-OV-3 ovarian): 27.6 µM | GI50 (SN12C renal): 10.3 µM | TGI (SN12C renal): 24.4 µM | GI50 (SNB-19 CNS): 11.5 µM | TGI (SNB-19 CNS): 24.8 µM | GI50 (SNB-75 CNS): 8.14 µM | TGI (SNB-75 CNS): 20.9 µM | GI50 (SR leukemia): 2.28 µM | TGI (SR leukemia): 6.08 µM | GI50 (SW-620 colon): 4.03 µM | TGI (SW-620 colon): 15.7 µM | GI50 (T-47D breast): 2.29 µM | TGI (T-47D breast): 10.4 µM | GI50 (TK-10 renal): 11.1 µM | TGI (TK-10 renal): 23.3 µM | GI50 (U251 CNS): 2.75 µM | TGI (U251 CNS): 12.1 µM | GI50 (UACC-257 melanoma): 2.14 µM | TGI (UACC-257 melanoma): 7.37 µM | GI50 (UACC-62 melanoma): 12.1 µM | TGI (UACC-62 melanoma): 25.3 µM | GI50 (UO-31 renal): 5.01 µM | TGI (UO-31 renal): 19 µM

Cc1ccccc1NC(=O)NC(Oc1ccccc1)(C(F)(F)F)C(F)(F)F
TGI (786-0 renal): > 100 µM | TGI (A498 renal): > 100 µM | TGI (ACHN renal): > 100 µM | TGI (BT-549 breast): > 100 µM | TGI (CAKI-1 renal): 97.5 µM | TGI (CCRF-CEM leukemia): > 100 µM | TGI (COLO 205 colon): > 100 µM | TGI (HCC-2998 colon): > 100 µM | TGI (HCT-116 colon): > 100 µM | TGI (HL-60(TB) leukemia): > 100 µM | TGI (HS 578T breast): > 100 µM | TGI (HT29 colon): > 100 µM | TGI (IGROV1 ovarian): > 100 µM | TGI (K-562 leukemia): > 100 µM | TGI (M14 melanoma): > 100 µM | TGI (MDA-MB-435): > 100 µM | TGI (MOLT-4 leukemia): > 100 µM | TGI (NCI-H23 lung): > 100 µM | TGI (NCI/ADR-RES ovarian): > 100 µM | TGI (OVCAR-5 ovarian): > 100 µM | TGI (RPMI-8226 leukemia): > 100 µM | TGI (RXF 393 renal): > 100 µM | TGI (SF-268 CNS): > 100 µM | TGI (SF-539 CNS): > 100 µM | TGI (SK-MEL-2 melanoma): > 100 µM | TGI (SK-MEL-28 melanoma): > 100 µM | TGI (SK-OV-3 ovarian): > 100 µM | TGI (SNB-19 CNS): > 100 µM | TGI (SNB-75 CNS): > 100 µM | TGI (SR leukemia): > 100 µM | TGI (T-47D breast): > 100 µM | TGI (U251 CNS): > 100 µM | TGI (UACC-257 melanoma): > 100 µM | TGI (UO-31 renal): > 100 µM
